Laboratory results: patent US9255295B2, “Method for evaluating the sensitizing potential of a test compound” (IMMUNOSEARCH, priority 2010, dated 2016)
Like-named read-outs stand apart in the source and are kept apart here.

What was measured:
[1] = tested on: ARE gene family (AKR1B10, AKR1C1, AKR1C2, CYP1B1, FTH1P, FTL, G6PD, GCLM, NQO2, SLC7A11, TXNRD1, UGT1A1, UGT1A9, YWHAZ, CD36, CYP1A1, GCLC, HMOX1, NQO1, PSME2 …); conditions: for AHR expression / AKR1B10 expression / AKR1C1 expression / AKR1C2 expression / CYP1A1 expression / CYP1B1 expression / FTH1P expression / FTL expression / GCLC expression / GCLM expression / HMOX1 expression / NQO1 expression / NQO2 expression / SLC7A11 expression / TXNRD1 expression / UGT1A1 expression / UGT1A9 expression: compared to the control
EPISKIN model = assay: Sensitizing power: sensitizing potential retested at successive dilutions in the EPISKIN model
Excerpt: “Sensitizing power” means the ability of a given compound to induce a sensitization reaction according to the concentration of said compound. Sensitizing power is dependent on the quantity of substance necessary to induce sensitization. Thus, the lower the sensitizing quantity necessary to induce a sensitizing response, the stronger the sensitizer is, and vice versa, the higher the sensitizing quantity necessary to induce a sensitizing response, the weaker the sensitizer is.
Thus, steps 1) and 2) will be done for each of the dilutions.

For `O=CC=O` [Glyoxal], the “AKR1C1 NUMBER OF GENES grade” value ([1]; 10%) was 0 (if this expression is lower, the grade is 0), the “AKR1C2 NUMBER OF GENES grade” value ([1]; 10%) was 0 (if this expression is lower, the grade is 0) and the “ARE >1.3 (number of genes)” value ([1]; 10%) was 3. For the same molecule, the “CD36 expression compared to control” value ([1]; 10%) was 1.3, the “CD36 grade (NUMBER OF GENES)” value ([1]; 10%) was 1 (If the expression is greater than 1.3 compared to the control, a grade of 11s given) and the “CYP1A1 NUMBER OF GENES grade” value ([1]; 10%) was 0 (if this expression is lower, the grade is 0). The “CYP1B1 NUMBER OF GENES grade” value ([1]; 10%) was 0 (if this expression is lower, the grade is 0), the “FTH1P NUMBER OF GENES grade” value ([1]; 10%) was 0 (if this expression is lower, the grade is 0) and the “FTL NUMBER OF GENES grade” value ([1]; 10%) was 0 (if this expression is lower, the grade is 0). The “GCLC NUMBER OF GENES grade” value ([1]; 10%) was 0 (if this expression is lower, the grade is 0), the “GCLM NUMBER OF GENES grade” value ([1]; 10%) was 1 (If the expression is greater than 1.3 compared to the control, a grade of 11s given) and the “HMOX1 NUMBER OF GENES grade” value ([1]; 10%) was 0 (if this expression is lower, the grade is 0). For the same molecule, the “NQO1 NUMBER OF GENES grade” value ([1]; 10%) was 0 (if this expression is lower, the grade is 0), the “NQO2 NUMBER OF GENES grade” value ([1]; 10%) was 0 (if this expression is lower, the grade is 0) and the “S100A8 expression compared to control” value ([1]; 10%) was 0.9. The “S100A8 grade (NUMBER OF GENES)” value ([1]; 10%) was 0 (if this expression is lower, the grade is 0), the “SLC7A11 NUMBER OF GENES grade” value ([1]; 10%) was 1 (If the expression is greater than 1.3 compared to the control, a grade of 11s given) and the “TOTAL ARE (number of genes)” value ([1]; 10%) was 3. The “TXNRD1 NUMBER OF GENES grade” value ([1]; 10%) was 1 (If the expression is greater than 1.3 compared to the control, a grade of 11s given), the “UGT1A1 NUMBER OF GENES grade” value ([1]; 10%) was 0 (if this expression is lower, the grade is 0) and the “UGT1A9 NUMBER OF GENES grade” value ([1]; 10%) was 0 (if this expression is lower, the grade is 0). For the same molecule, the AHR expression ([1]; 10%) was 1.0, the AKR1B10 expression ([1]; 10%) was 0.7 and the AKR1C1 expression ([1]; 10%) was 1.0. The AKR1C2 expression ([1]; 10%) was 1.2, the CYP1A1 expression ([1]; 10%) was 0.0 and the CYP1B1 expression ([1]; 10%) was 0.8. The FTH1P expression ([1]; 10%) was 1.1, the FTL expression ([1]; 10%) was 1.1 and the GCLC expression ([1]; 10%) was 1.1. For the same molecule, the GCLM expression ([1]; 10%) was 1.7, the HMOX1 expression ([1]; 10%) was 1.0 and the NQO1 expression ([1]; 10%) was 1.2. The NQO2 expression ([1]; 10%) was 1.0, the SLC7A11 expression ([1]; 10%) was 1.9 and the TXNRD1 expression ([1]; 10%) was 1.3. The UGT1A1 expression ([1]; 10%) was 1.0, the UGT1A9 expression ([1]; 10%) was 0.2 and the “AHR NUMBER OF GENES grade” value ([1]; 50%) was 0 (if this expression is lower, the grade is 0). The “AKR1B10 NUMBER OF GENES grade” value ([1]; 50%) was 0 (if this expression is lower, the grade is 0), the “AKR1C1 NUMBER OF GENES grade” value ([1]; 50%) was 0 (if this expression is lower, the grade is 0) and the “AKR1C2 NUMBER OF GENES grade” value ([1]; 50%) was 0 (if this expression is lower, the grade is 0). The “ARE >1.3 (number of genes)” value ([1]; 50%) was 6, the “CD36 expression compared to control” value ([1]; 50%) was 1.1 and the “CD36 grade (NUMBER OF GENES)” value ([1]; 50%) was 0 (if this expression is lower, the grade is 0). The “CYP1A1 NUMBER OF GENES grade” value ([1]; 50%) was 0 (if this expression is lower, the grade is 0), the “CYP1B1 NUMBER OF GENES grade” value ([1]; 50%) was 1 (If the expression is greater than 1.3 compared to the control, a grade of 11s given) and the “FTH1P NUMBER OF GENES grade” value ([1]; 50%) was 0 (if this expression is lower, the grade is 0). The “FTL NUMBER OF GENES grade” value ([1]; 50%) was 0 (if this expression is lower, the grade is 0), the “GCLC NUMBER OF GENES grade” value ([1]; 50%) was 0 (if this expression is lower, the grade is 0) and the “GCLM NUMBER OF GENES grade” value ([1]; 50%) was 1 (If the expression is greater than 1.3 compared to the control, a grade of 11s given). The “HMOX1 NUMBER OF GENES grade” value ([1]; 50%) was 1 (If the expression is greater than 1.3 compared to the control, a grade of 11s given), the “NQO1 NUMBER OF GENES grade” value ([1]; 50%) was 0 (if this expression is lower, the grade is 0) and the “NQO2 NUMBER OF GENES grade” value ([1]; 50%) was 0 (if this expression is lower, the grade is 0). For the same molecule, the “S100A8 expression compared to control” value ([1]; 50%) was 0.9, the “S100A8 grade (NUMBER OF GENES)” value ([1]; 50%) was 0 (if this expression is lower, the grade is 0) and the “SLC7A11 NUMBER OF GENES grade” value ([1]; 50%) was 0 (if this expression is lower, the grade is 0). For the same molecule, the “TOTAL ARE (number of genes)” value ([1]; 50%) was 6, the “TXNRD1 NUMBER OF GENES grade” value ([1]; 50%) was 1 (If the expression is greater than 1.3 compared to the control, a grade of 11s given) and the “UGT1A1 NUMBER OF GENES grade” value ([1]; 50%) was 1 (If the expression is greater than 1.3 compared to the control, a grade of 11s given). For the same molecule, the “UGT1A9 NUMBER OF GENES grade” value ([1]; 50%) was 1 (If the expression is greater than 1.3 compared to the control, a grade of 11s given), the AHR expression ([1]; 50%) was 0.9 and the AKR1B10 expression ([1]; 50%) was 0.8. The AKR1C1 expression ([1]; 50%) was 0.8, the AKR1C2 expression ([1]; 50%) was 0.9 and the CYP1A1 expression ([1]; 50%) was 1.1. It also gave a CYP1B1 expression ([1]; 50%) of 3.3, an FTH1P expression ([1]; 50%) of 0.9 and an FTL expression ([1]; 50%) of 0.9. For the same molecule, the GCLC expression ([1]; 50%) was 0.9, the GCLM expression ([1]; 50%) was 1.5 and the HMOX1 expression ([1]; 50%) was 1.4. It also gave an NQO1 expression ([1]; 50%) of 0.9, an NQO2 expression ([1]; 50%) of 0.9 and an SLC7A11 expression ([1]; 50%) of 1.0. The TXNRD1 expression ([1]; 50%) was 1.4, the UGT1A1 expression ([1]; 50%) was 1.4 and the UGT1A9 expression ([1]; 50%) was 1.3. The “sensitizing potential (conclusion)” value (EPISKIN model; 0.1%) was “Sensitizing”, the “sensitizing potential (conclusion)” value (EPISKIN model; 1%) was “Sensitizing” and the “sensitizing potential (conclusion)” value (EPISKIN model; 10%) was “Sensitizing”. The “sensitizing potential (conclusion)” value (EPISKIN model; 50%) was “Sensitizing” and the “sensitizing power (class)” value (EPISKIN model; from successive dilutions) was “MODERATE”.
